Experimental data: US9150603B2, “2′-cyano substituted nucleoside derivatives and methods of use thereof useful for the treatment of viral diseases” (priority 2011, dated 2015)

Tests used:
replicon cells = assay: Cytotoxicity in replicon cells (MTS assay); conditions: CC50, MTS assay, three days post dosing
replicon cells (1b-Con1) = assay: Replicon activity assay (1b-Con1 replicon cells, real-time RT-PCR); assay type: cell-based, HCV; conditions: three days post-dosing
HCV replicon cells (1b) = assay: Cell-based HCV replicon assay (replicon RNA level by Taqman real time PCR); conditions: HCV 1b replicon, cells harvested on day 3
Experimental: To measure cell-based anti-HCV activity of selected compounds of the present invention, replicon cells were seeded at 5000 cells/well in 96-well collagen I-coated Nunc plates in the presence of the test compound. […]. Cells were harvested on day 3 by the addition of 1× cell lysis buffer (Ambion cat #8721). The replicon RNA level was measured using real time PCR (Taqman assay). The amplicon was located in 5B. The PCR primers were: 5B.2F, […] (SEQ ID. NO. 1); 5B.2R, […] (SEQ ID. NO. 2); the probe sequence was FAM-labeled […] (SEQ ID. NO. 3). GAPDH RNA was used as endogenous control and was amplified in the same reaction as NSSB (multiplex PCR) using primers and VIC-labeled probe recommended by the manufacturer (PE Applied Biosystem). The real-time RT-PCR reactions were run on ABI PRISM 7900HT Sequence Detection System using the following program: 48° C. for 30 minutes, 95° C. for 10 minutes, 40 cycles of 95° C. for 15 sec, 60° C. for 1 minute. The ACT values (CT5B−CTGAPDH) were plotted against the concentration of test compound and fitted to the sigmoid dose-response model using XLfit4 (MDL). […]; Alternatively, to quantitate the absolute amount of replicon RNA, a standard curve was established by including serially diluted T7 transcripts of replicon RNA in the Taqman assay. All Taqman reagents were from […] Applied Biosystems. Such an assay procedure was described in detail in e.g. Malcolm et al., Antimicrobial Agents and Chemotherapy 50: 1013-1020 (2006).

[1] = molecular target: T1, HCV NS5B RNA-dependent RNA polymerase (1b-BKΔ55) (Hepatitis C virus genotype 1b, UniProt P26663); assay: Inhibition of HCV NS5B polymerase by nucleoside triphosphate analogs (radiolabeled nucleotide incorporation assay); assay type: biochemical
T1 construct: 5 nM NS5B (1b-BKΔ55) enzyme

Replicon (1a) = assay: microbe, parasite or virus in culture; assay type: cell-based, HCV; conditions: Hepatitis C virus; 1a replicon, marked (1a) in the cell

T1 sequence (P26663 2420-2955 limits assumed, stated change not applied): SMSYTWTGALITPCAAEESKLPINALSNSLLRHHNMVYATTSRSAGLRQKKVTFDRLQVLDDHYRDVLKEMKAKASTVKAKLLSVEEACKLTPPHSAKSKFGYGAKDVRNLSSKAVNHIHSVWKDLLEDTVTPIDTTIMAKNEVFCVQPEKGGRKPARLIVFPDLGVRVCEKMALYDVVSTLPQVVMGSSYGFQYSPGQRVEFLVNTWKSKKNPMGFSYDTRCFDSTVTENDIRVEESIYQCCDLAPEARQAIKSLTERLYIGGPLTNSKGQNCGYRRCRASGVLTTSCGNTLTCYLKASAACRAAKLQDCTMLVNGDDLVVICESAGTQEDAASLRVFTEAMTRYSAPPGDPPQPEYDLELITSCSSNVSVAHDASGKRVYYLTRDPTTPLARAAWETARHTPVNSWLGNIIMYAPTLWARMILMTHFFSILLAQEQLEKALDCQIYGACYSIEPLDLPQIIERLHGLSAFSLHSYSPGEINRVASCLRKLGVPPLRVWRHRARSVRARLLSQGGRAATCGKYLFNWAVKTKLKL

C[C@H](NP(=O)(OC[C@H]1O[C@@H](n2ccc(=O)[nH]c2=O)[C@](C)(C#N)[C@@H]1O)Oc1ccccc1)C(=O)O[C@H](C)c1ccccc1 (stereo partly shown)
Cytotoxicity (replicon cells): >100 µM | EC50 (replicon cells (1b-Con1); Hepatitis C virus, 72 h): 34 µM

CC(C)OC(=O)[C@H](C)NP(=O)(OC[C@H]1O[C@@H](n2ccc(=O)[nH]c2=O)[C@](C)(C#N)[C@@H]1O)Oc1ccccc1 (stereo partly shown)
Cytotoxicity (replicon cells): >100 µM | EC50 (replicon cells (1b-Con1); Hepatitis C virus, 72 h): 8.3 µM

C[C@H](NP(=O)(OC[C@H]1O[C@@H](n2ccc(=O)[nH]c2=O)[C@](C)(C#N)[C@@H]1O)Oc1ccccc1)C(=O)OC1CCCCC1 (stereo partly shown)
EC50 (replicon cells (1b-Con1); Hepatitis C virus, 72 h): 2.4 µM

CCCOC(=O)[C@H](C)NP(=O)(OC[C@H]1O[C@@H](n2cnc3c(OC)nc(N)nc32)[C@](C)(C#N)[C@@H]1O)Oc1ccccc1 (stereo partly shown)
EC50 (replicon cells (1b-Con1); Hepatitis C virus, 72 h): 2.1 µM

COc1nc(N)nc2c1ncn2[C@@H]1O[C@H](COP(=O)(N[C@@H](C)C(=O)OC(C)C)Oc2ccccc2)[C@@H](O)[C@@]1(C)C#N (stereo partly shown)
Cytotoxicity (replicon cells): >100 µM | EC50 (replicon cells (1b-Con1); Hepatitis C virus, 72 h): 2.2 µM

COc1nc(N)nc2c1ncn2[C@@H]1O[C@H](COP(=O)(N[C@@H](C)C(=O)OC(C)C)Oc2ccccc2OC(C)=O)[C@@H](O)[C@@]1(C)C#N (stereo partly shown)
Cytotoxicity (replicon cells): 15 µM | EC50 (replicon cells (1b-Con1); Hepatitis C virus, 72 h): 8.9 µM

CC(C)OP1(=O)OC[C@H]2O[C@@H](n3ccc(=O)[nH]c3=O)[C@](C)(C#N)[C@@H]2O1 (stereo partly shown)
Cytotoxicity (replicon cells): >100 µM | EC50 (replicon cells (1b-Con1); Hepatitis C virus, 72 h): 1.3 µM

CC(C)COC(=O)[C@H](C)NP(=O)(OC[C@H]1O[C@@H](n2ccc(N)nc2=O)[C@](C)(C#N)[C@@H]1O)Oc1ccccc1 (stereo partly shown)
Cytotoxicity (replicon cells): 92 µM | EC50 (replicon cells (1b-Con1); Hepatitis C virus, 72 h): 0.4 µM

CCC(NP(=O)(OC[C@H]1O[C@@H](n2cnc3c(OC)nc(N)nc32)[C@](C)(C#N)[C@@H]1O)Oc1ccccc1)C(=O)OC(C)C (stereo partly shown)
Cytotoxicity (replicon cells): >100 µM | EC50 (replicon cells (1b-Con1); Hepatitis C virus, 72 h): 2.2 µM

CCOc1nc(N)nc2c1ncn2[C@@H]1O[C@@H]2COP(=O)(OC3CCC3)O[C@H]2[C@@]1(C)C#N (stereo partly shown)
Cytotoxicity (replicon cells): >100 µM | EC50 (replicon cells (1b-Con1); Hepatitis C virus, 72 h): 1.2 µM

CC(=O)Nc1ccn([C@@H]2O[C@H](CO)[C@@H](O)[C@@]2(C)C#N)c(=O)n1 [Compound 1]
EC50 (HCV replicon cells (1b); Hepatitis C virus, 72 h): 14 µM

C[C@@]1(C#N)[C@H](O)[C@@H](CO)O[C@H]1n1ccc(=O)[nH]c1=O [Compound 2, 1-[(2R,3R,4S,5R)-3-cyano-4-hydroxy-5-(hydroxymethyl)-3-methyloxolan-2-yl]-1,2,3,4-tetrahydropyrimidine-2,4-dione]
EC50 (HCV replicon cells (1b)): 12.6 µM

C[C@@]1(C#N)[C@H](O)[C@@H](CO)O[C@H]1n1ccc(=O)[nH]c1=O [Compound 3]
EC50 (HCV replicon cells (1b)): > 66 µM

CCOc1nc(NC(C)=O)nc2c1ncn2[C@@H]1O[C@H](CO)[C@@H](O)[C@@]1(C)C#N [Compound 4]
EC50 (HCV replicon cells (1b); Hepatitis C virus, 72 h): 100 µM

CCOc1nc(N)nc2c1ncn2[C@@H]1O[C@H](CO)[C@@H](O)[C@@]1(C)C#N [Compound 5]
EC50 (HCV replicon cells (1b); Hepatitis C virus, 72 h): > 100 µM

CCOc1nc(N)nc2c1ncn2[C@@H]1O[C@H](COP(=O)(N[C@@H](C)C(=O)OC)Oc2ccccc2)[C@@H](O)[C@@]1(C)C#N (stereo partly shown) [Compound 6]
EC50 (HCV replicon cells (1b); Hepatitis C virus, 72 h): 1.4 µM

CCCCOC(=O)[C@H](C)NP(=O)(OC[C@H]1O[C@@H](n2cnc3c(OCC)nc(N)nc32)[C@](C)(C#N)[C@@H]1O)Oc1cccc2ccccc12 (stereo partly shown) [Compound 7]
EC50 (HCV replicon cells (1b); Hepatitis C virus, 72 h): 1 µM

CCOC(=O)[C@H](C)NP(=O)(OC[C@H]1O[C@@H](n2cnc3c(OCC)nc(N)nc32)[C@](C)(C#N)[C@@H]1O)Oc1ccccc1 (stereo partly shown) [Compound 8]
EC50 (HCV replicon cells (1b); Hepatitis C virus, 72 h): 11.7 µM

CCOc1nc(N)nc2c1ncn2[C@@H]1O[C@H](COP(=O)(N[C@@H](C)C(=O)OCC(C)(C)C)Oc2ccccc2)[C@@H](O)[C@@]1(C)C#N (stereo partly shown) [Compound 9]
EC50 (HCV replicon cells (1b); Hepatitis C virus, 72 h): 0.7 µM

CCOc1nc(N)nc2c1ncn2[C@@H]1O[C@H](COP(=O)(N[C@@H](C)C(=O)OC(C)C)Oc2ccccc2)[C@@H](O)[C@@]1(C)C#N (stereo partly shown) [Compound 10]
EC50 (HCV replicon cells (1b); Hepatitis C virus, 72 h): 15 µM

CCOC(=O)[C@H](C)NP(=O)(OC[C@H]1O[C@@H](n2cnc3c(OCC)nc(N)nc32)[C@](C)(C#N)[C@@H]1O)Oc1ccc(F)cc1 (stereo partly shown) [Compound 11]
EC50 (HCV replicon cells (1b); Hepatitis C virus, 72 h): 17 µM

CCOC(=O)[C@H](C)NP(=O)(OC[C@H]1O[C@@H](n2cnc3c(OCC)nc(N)nc32)[C@](C)(C#N)[C@@H]1O)Oc1ccc(Cl)cc1 (stereo partly shown) [Compound 12]
EC50 (HCV replicon cells (1b); Hepatitis C virus, 72 h): 1.7 µM

CCCCOC(=O)[C@H](C)NP(=O)(OC[C@H]1O[C@@H](n2cnc3c(OCC)nc(N)nc32)[C@](C)(C#N)[C@@H]1O)Oc1ccccc1 (stereo partly shown) [Compound 13]
EC50 (HCV replicon cells (1b); Hepatitis C virus, 72 h): 1.5 µM

COC(=O)[C@H](C)NP(=O)(OC[C@H]1O[C@@H](n2ccc(=O)[nH]c2=O)[C@](C)(C#N)[C@@H]1O)Oc1ccccc1 (stereo partly shown) [Compound 14]
EC50 (HCV replicon cells (1b); Hepatitis C virus, 72 h): 11 µM

C[C@H](NP(=O)(OC[C@H]1O[C@@H](n2ccc(=O)[nH]c2=O)[C@](C)(C#N)[C@@H]1O)Oc1ccccc1)C(=O)OCC(C)(C)C (stereo partly shown) [Compound 15]
EC50 (HCV replicon cells (1b); Hepatitis C virus, 72 h): 5 µM

CCOC(=O)[C@H](C)NP(=O)(OC[C@H]1O[C@@H](n2ccc(=O)[nH]c2=O)[C@](C)(C#N)[C@@H]1O)Oc1ccccc1 (stereo partly shown) [Compound 16]
EC50 (HCV replicon cells (1b); Hepatitis C virus, 72 h): 51 µM

COC(=O)[C@H](C)NP(=O)(OC[C@H]1O[C@@H](n2ccc(=O)[nH]c2=O)[C@](C)(C#N)[C@@H]1O)Oc1ccc(Cl)cc1 (stereo partly shown) [Compound 17]
EC50 (HCV replicon cells (1b); Hepatitis C virus, 72 h): 13 µM

CCCCOC(=O)[C@H](C)NP(=O)(OC[C@H]1O[C@@H](n2ccc(=O)[nH]c2=O)[C@](C)(C#N)[C@@H]1O)Oc1cccc2ccccc12 (stereo partly shown) [Compound 18]
EC50 (HCV replicon cells (1b); Hepatitis C virus, 72 h): 1 µM

CCOC(=O)[C@H](C)NP(=O)(OC[C@H]1O[C@@H](n2ccc(=O)[nH]c2=O)[C@](C)(C#N)[C@@H]1O)Oc1ccc(Cl)cc1 (stereo partly shown) [Compound 19]
EC50 (HCV replicon cells (1b); Hepatitis C virus, 72 h): 15 µM

CCCCOC(=O)[C@H](C)NP(=O)(OC[C@H]1O[C@@H](n2ccc(N)nc2=O)[C@](C)(C#N)[C@@H]1O)Oc1cccc2ccccc12 (stereo partly shown) [Compound 20]
EC50 (HCV replicon cells (1b); Hepatitis C virus, 72 h): 16 µM

COC(=O)[C@H](C)NP(=O)(OC[C@H]1O[C@@H](n2ccc(N)nc2=O)[C@](C)(C#N)[C@@H]1O)Oc1ccccc1 (stereo partly shown) [Compound 21]
EC50 (HCV replicon cells (1b); Hepatitis C virus, 72 h): 25 µM

C[C@H](NP(=O)(OC[C@H]1O[C@@H](n2ccc(N)nc2=O)[C@](C)(C#N)[C@@H]1O)Oc1ccccc1)C(=O)OCC(C)(C)C (stereo partly shown) [Compound 22]
EC50 (HCV replicon cells (1b); Hepatitis C virus, 72 h): 18 µM

CC(C)OP1(=O)OC[C@H]2O[C@@H](n3ccc(N)nc3=O)[C@](C)(C#N)[C@@H]2O1 (stereo partly shown) [Compound 23]
EC50 (HCV replicon cells (1b); Hepatitis C virus, 72 h): 6.7 µM

CC(C)OP1(=O)OC[C@H]2O[C@@H](n3ccc(N)nc3=O)[C@](C)(C#N)[C@@H]2O1 (stereo partly shown) [Compound 24]
EC50 (HCV replicon cells (1b)): 7.9 µM

CCOP1(=O)OC[C@H]2O[C@@H](n3ccc(N)nc3=O)[C@](C)(C#N)[C@@H]2O1 (stereo partly shown) [Compound 25]
EC50 (HCV replicon cells (1b); Hepatitis C virus, 72 h): > 100 µM

C[C@@]1(C#N)[C@@H]2OP(=O)(Oc3ccccc3)OC[C@H]2O[C@H]1n1ccc(N)nc1=O (stereo partly shown) [Compound 26]
EC50 (HCV replicon cells (1b); Hepatitis C virus, 72 h): 62 µM

C[C@@]1(C#N)[C@@H]2OP(=O)(OC3CCC3)OC[C@H]2O[C@H]1n1ccc(N)nc1=O (stereo partly shown) [Compound 27]
EC50 (HCV replicon cells (1b); Hepatitis C virus, 72 h): > 100 µM

CCOc1nc(N)nc2c1ncn2[C@@H]1O[C@@H]2COP(=O)(OC(C)C)O[C@H]2[C@@]1(C)C#N (stereo partly shown) [Compound 28]
EC50 (HCV replicon cells (1b); Hepatitis C virus, 72 h): 2.7 µM

C[C@@]1(C#N)[C@H](O)[C@@H](COP(=O)(O)OP(=O)(O)OP(=O)(O)O)O[C@H]1n1ccc(N)nc1=O [Compound 29]
IC50 [1]: 0.5 µM

CC(C)OC(=O)[C@H](C)NP(=O)(OC[C@H]1O[C@@H](n2ccc(=O)[nH]c2=O)[C@](C)(C#N)[C@@H]1O)Oc1ccccc1Cl (stereo partly shown) [Compound 30]
EC50 (HCV replicon cells (1b); Hepatitis C virus, 72 h): 571 µM

CC(C)COC(=O)[C@H](C)NP(=O)(OC[C@H]1O[C@@H](n2ccc(=O)[nH]c2=O)[C@](C)(C#N)[C@@H]1O)Oc1ccccc1 (stereo partly shown) [drawing 352]
Cytotoxicity (replicon cells): >100 µM | EC50 (replicon cells (1b-Con1)): 1.4 µM

CCCCOC(=O)[C@H](C)NP(=O)(OC[C@H]1O[C@@H](n2ccc(=O)[nH]c2=O)[C@](C)(C#N)[C@@H]1O)Oc1cccc2ccccc12 (stereo partly shown) [drawing 354]
Cytotoxicity (replicon cells): >100 µM | EC50 (replicon cells (1b-Con1); Hepatitis C virus, 72 h): 2.7 µM

CC(C)OC(=O)[C@H](C)NP(=O)(OC[C@H]1O[C@@H](n2ccc(N)nc2=O)[C@](C)(C#N)[C@@H]1O)Oc1ccccc1 (stereo partly shown) [drawing 359]
Cytotoxicity (replicon cells): >100 µM | EC50 (replicon cells (1b-Con1); Hepatitis C virus, 72 h): 5.2 µM

CC(C)COC(=O)[C@H](C)NP(=O)(OC[C@H]1O[C@@H](n2ccc(=O)[nH]c2=O)[C@](C)(C#N)[C@@H]1O)Oc1ccccc1 (stereo partly shown) [drawing 360]
Cytotoxicity (replicon cells): >100 µM | EC50 (replicon cells (1b-Con1); Hepatitis C virus, 72 h): 1.3 µM

CC(C)OC(=O)[C@H](C)NP(=O)(OC[C@H]1O[C@@H](n2ccc(N)nc2=O)[C@](C)(C#N)[C@@H]1O)Oc1ccccc1 (stereo partly shown) [drawing 363]
EC50 (Replicon (1a)): 0.9 µM | Cytotoxicity (replicon cells): >100 µM
